One compound from ChEMBL document CHEMBL3616410, “Linked pyridinyl-thiadiazoles: Design and synthesis as potential candidate for treatment of XDR and MDR tuberculosis” (Eur J Med Chem, 2015) can be followed below.

Converted amounts (≈) assume the structure as drawn.

Holding throughout (assay type): functional
In experiment [1] the test system is Mycobacterium tuberculosis. As to the kind of experiment: Antimycobacterial activity against multi-drug resistant Mycobacterium tuberculosis TN576 after 5 days by spectrophotometry. The following applies: TN576, 120 h.
In experiment [2] the test system is Mycobacterium tuberculosis. Put plainly: Antimycobacterial activity against multi-drug resistant Mycobacterium tuberculosis TN702 after 5 days by spectrophotometry. The following applies: TN702, 120 h.
Experiment [3] has as its system Mycobacterium tuberculosis. As to the kind of experiment: Antimycobacterial activity against multi-drug resistant Mycobacterium tuberculosis TN772 after 5 days by spectrophotometry. The following applies: TN772, 120 h.
For experiment [4], the system named is Mycobacterium tuberculosis. Put plainly: Antimycobacterial activity against multi-drug resistant Mycobacterium tuberculosis TN1314 after 5 days by spectrophotometry. The conditions noted are these: TN1314, 120 h.
Experiment [5] relates to Mycobacterium tuberculosis. As to the kind of experiment: Antimycobacterial activity against multi-drug resistant Mycobacterium tuberculosis TN1811 after 5 days by spectrophotometry. The conditions noted are these: TN1811, 120 h.
Experiment [6] has as its system Mycobacterium tuberculosis. Put plainly: Antimycobacterial activity against multi-drug resistant Mycobacterium tuberculosis TN768 after 5 days by spectrophotometry. The following applies: TN768, 120 h.
Experiment [7] relates to Mycobacterium tuberculosis. As to the kind of experiment: Antimycobacterial activity against multi-drug resistant Mycobacterium tuberculosis TN2557 after 5 days by spectrophotometry. The conditions noted are these: TN2557, 120 h.
In experiment [8] the test system is Mycobacterium tuberculosis. Put plainly: Antimycobacterial activity against multi-drug resistant Mycobacterium tuberculosis TN565 after 5 days by spectrophotometry. The following applies: TN565, 120 h.
Experiment [9] relates to Mycobacterium tuberculosis. As to the kind of experiment: Antimycobacterial activity against multi-drug resistant Mycobacterium tuberculosis TN1195 after 5 days by spectrophotometry. The conditions noted are these: TN1195, 120 h.
The subject of experiment [10] is Mycobacterium tuberculosis. As to the kind of experiment: Antimycobacterial activity against multi-drug resistant Mycobacterium tuberculosis TN1618 after 5 days by spectrophotometry. The conditions noted are these: TN1618, 120 h.
Experiment [11] concerns Mycobacterium tuberculosis. As to the kind of experiment: Antimycobacterial activity against multi-drug resistant Mycobacterium tuberculosis TN715 after 5 days by spectrophotometry. The conditions noted are these: TN715, 120 h.

As a reminder, the MIC is the lowest concentration found to suppress growth. A low value points to greater potency. Consider `O=C(CCSc1nnc(-c2ccncc2)s1)Nc1ccc(Cl)cc1`, for which the MIC in experiment [1] was determined as 0.06 µg/mL (≈ 0.159 µM); in experiment [2] it was 0.25 µg/mL (≈ 0.663 µM); in [3] it was 0.03 µg/mL (≈ 0.0796 µM); in [4] it was 0.03 µg/mL (≈ 0.0796 µM); in experiment [5], 0.03 µg/mL (≈ 0.0796 µM); in [6] it was 0.06 µg/mL (≈ 0.159 µM). The MIC came to 0.13 µg/mL (≈ 0.345 µM) in experiment [7]; 0.06 µg/mL (≈ 0.159 µM) in experiment [8]; 0.25 µg/mL (≈ 0.663 µM) in [9]; 0.06 µg/mL (≈ 0.159 µM) in experiment [10]; 0.06 µg/mL (≈ 0.159 µM) in [11].
